Reference: patent US6656906B1, “Hybrid polypeptides with enhanced pharmacokinetic properties” (Trimeris, Inc., priority 1998, dated 2003)
Read-outs that look alike come from different tables or passages of the source.

Experiments:
[1] = Acute toxicity, IV through jugular cannula; assay type: in vivo; details: 167 mg/kg (highest dose tested), 0.3 ml over 2-3 min
[2] = Single-dose administration to rodents (CSI, SC, IV), plasma pharmacokinetics; assay type: in vivo, Sprague-Dawley albino rats; details: for bioavailability / AUC(0-t) / AUC(0-inf) / Cmax / half-life / Tmax: rat, in vivo; for bioavailability: read-out: FR (%) relative bioavailability; for half-life: read-out: t1/2, terminal (converted)
Method: T1249 was administered to Sprague-Dawley albino rats in a single dose administered by continuous subcutaneous infusion (SCI), subcutaneous (SC) injection or intravenous (IV) injection. Each treatment group consisted of nine rats per sex per group. […] One group received 50 mM carbonate-bicarbonate, pH 8.5, administered as a control. The peptides were given for 12 hours via a polyvinyl chloride/polyethylene catheter surgically implanted subcutaneously in the nape of the neck. […] The actual milligram amount of T1249 was calculated using the peptide content that was determined for the batch administrated.
Endpoints for analysis included cageside observations (twice daily for mortality and moribundity), clinical observations, clinical laboratory parameters, body weight and necropsy. Blood samples were obtained by a sparse sampling technique over a 12 hour time period from three rats per sex per group at each of the following times: 0.5, 1, 2, 4, 6, 8, […], and 12 hours after dose administration. Sample analysis was performed using a PcAb ECLIA assay (Blackburn, G. et al., 1991, Clin. Chem. 37:1534-1539; Deaver, D., 1995, Nature 377:758).

SMILES: CC[C@H](C)[C@H](NC(=O)[C@H](CCC(N)=O)NC(=O)[C@H](C)NC(=O)[C@H](CCC(N)=O)NC(=O)[C@H](CCC(=O)O)NC(=O)[C@H](CC(C)C)NC(=O)[C@H](CC(C)C)NC(=O)[C@H](C)NC(=O)[C@@H](NC(=O)[C@@H](NC(=O)[C@H](CCCCN)NC(=O)[C@H](CCC(N)=O)NC(=O)[C@H](CCC(=O)O)NC(=O)[C@H](Cc1c[nH]c2ccccc12)NC(=O)[C@H](CCC(=O)O)NC(=O)[C@H](CCC(N)=O)NC(=O)[C@H](Cc1c[nH]c2ccccc12)NC(C)=O)[C@@H](C)CC)[C@@H](C)O)C(=O)N[C@@H](CCC(N)=O)C(=O)N[C@@H](CCC(N)=O)C(=O)N[C@@H](CCC(=O)O)C(=O)N[C@@H](CCCCN)C(=O)N[C@@H](CC(N)=O)C(=O)N[C@@H](CCC(=O)O)C(=O)N[C@@H](Cc1ccc(O)cc1)C(=O)N[C@@H](CCC(=O)O)C(=O)N[C@@H](CC(C)C)C(=O)N[C@@H](CCC(N)=O)C(=O)N[C@@H](CCCCN)C(=O)N[C@@H](CC(C)C)C(=O)N[C@@H](CC(=O)O)C(=O)N[C@@H](CCCCN)C(=O)N[C@@H](Cc1c[nH]c2ccccc12)C(=O)N[C@@H](C)C(=O)N[C@@H](CO)C(=O)N[C@@H](CC(C)C)C(=O)N[C@@H](Cc1c[nH]c2ccccc12)C(=O)N[C@@H](CCC(=O)O)C(=O)N[C@@H](Cc1c[nH]c2ccccc12)C(=O)N[C@@H](Cc1ccccc1)C(N)=O [T1249]
- acute toxicity (death within 24 hours) [1]: not acutely toxic
- time to steady-state plasma peptide concentrations ([2]; CSI): approximately four hours
- dose proportionality of Cpss and AUC ([2]; CSI, 0.5 to 6.5 mg/kg): linear pharmacokinetics
- dose dependence of exposure ([2]; SC injection): not dose-dependent
- changes in body weight, physical observations, hematology and clinical chemistry parameters or macroscopic pathology ([2]; all dose groups): no changes
- dose dependence of pharmacokinetics ([2]; bolus IV injection): linear dose-dependent pharmacokinetics
- bioavailability ([2]; SC 1.2 mg/kg relative to IV 1.5 mg/kg): 73%
- bioavailability ([2]; SC 15 mg/kg relative to IV 5 mg/kg): 30%
- AUC(0-t) ([2]; CSI, 0.5 mg/kg): 7990 ng·h/mL
- AUC(0-t) ([2]; CSI, 2.0 mg/kg): 25900 ng·h/mL
- AUC(0-t) ([2]; CSI, 6.5 mg/kg): 120000 ng·h/mL
- AUC(0-inf) ([2]; IV 1.5 mg/kg): 47100 ng·h/mL
- AUC(0-t) ([2]; IV 1.5 mg/kg): 45600 ng·h/mL
- Cmax ([2]; IV 1.5 mg/kg): 15700 ng/mL
- half-life ([2]; IV 1.5 mg/kg): 148 min
- AUC(0-inf) ([2]; IV 5.0 mg/kg): 120000 ng·h/mL
- AUC(0-t) ([2]; IV 5.0 mg/kg): 118000 ng·h/mL
- Cmax ([2]; IV 5.0 mg/kg): 46300 ng/mL
- half-life ([2]; IV 5.0 mg/kg): 112 min
- AUC(0-inf) ([2]; SC 1.2 mg/kg): 27600 ng·h/mL
- AUC(0-t) ([2]; SC 1.2 mg/kg): 27000 ng·h/mL
- Cmax ([2]; SC 1.2 mg/kg): 6370 ng/mL
- Tmax ([2]; SC 1.2 mg/kg): 1.09 h
- half-life ([2]; SC 1.2 mg/kg): 121 min
- AUC(0-inf) ([2]; SC 15 mg/kg): 110000 ng·h/mL
- AUC(0-t) ([2]; SC 15 mg/kg): 107000 ng·h/mL
- Cmax ([2]; SC 15 mg/kg): 21500 ng/mL
- Tmax ([2]; SC 15 mg/kg): 1.88 h
- half-life ([2]; SC 15 mg/kg): 120 min
